Where two headings read alike, the source gives them in different places.
What was measured:
[1] = tested on: ERBB2-positive patients with advanced or metastatic breast cancer
Description: Quantitative mRNA levels of the transcripts were measured relative to GAPDH using the branch capture (BC) assay from Panomics using RNA extracted from single 10 micrometer FFPE sections from each tumor. Adjacent H&E stained sections were analyzed for tumor content and samples with <50% tumor were excluded. Transcript levels measured using the Panomics BC assay were normalized to Affymetrix microarray equivalent levels using a mapping function developed using measurements of the transcript levels measured in 22 breast cancer cell lines using both platforms. These functions were then applied to Panomics BC transcript levels for tumor samples to obtain Affymetrix-equivalent transcript levels for each of the EERBB2, GRB7, CRK, ACOT9, CBX5, and DDX5 genes. The weights in the 6-gene predictive model for the tumors were the same as determined from cell lines.
EGF20009 was a randomized, first line phase II trial in ERBB2-positive patients with advanced or metastatic breast cancer in which patients received Lapatinib as monotherapy. 138 patients with ERBB2-amplified tumors were randomly assigned to one of two Lapatinib dose cohorts: 69 patients received Lapatinib 1,500 mg once daily, and the remaining 69 patients received Lapatinib 500 mg twice daily. Samples from patients treated at both levels of Lapatinib were included in the study and patients were stratified into three groups based on tumor ERBB2 mRNA expression levels measured using the Panomics BC assay. Patients with the highest ERBB2 expression levels were assigned to a group designated as sensitive, patients with the lowest ERBB2 expression levels were assigned to a group designated as resistant and the remaining patients were assigned to an intermediate group (n=53). Patients whose tumors assigned to the intermediate group were further stratified into resistant and sensitive classes by using the 6-gene predictor set and a single response predictor CBX5, respectively.

breast cancer cell lines [2] = assay: cells; conditions: Homo sapiens
[3] = tested on: ERBB2-positive tumors from human cancer patients; assay: Progression free survival in a tumor panel stratified by the 6-gene computational model (Example 7); assay type: in vivo; conditions: sensitive if predicted log(GI50)≦0.4
Description: The computational model described in Example 6 was applied to the mRNA expression levels obtained to predict the Lapatinib sensitivity status of the tumors. […] The progression free survival of those predicted responders (sensitive) were compared to the non-responders (resistant).

breast cancer cell lines [4] = tested on: breast cancer cell lines

CS(=O)(=O)CCNCc1ccc(-c2ccc3ncnc(Nc4ccc(OCc5cccc(F)c5)c(Cl)c4)c3c2)o1 [Lapatinib]
hazards ratio (HR), predicted sensitive vs predicted resistant patients ([1]; intermediate ERBB2 expression group (n=53), 6-gene predictor set): 0.383 | hazards ratio (HR), predicted sensitive vs predicted resistant patients ([1]; intermediate group, CBX5 single predictor): 0.25 | median survival ([1]; intermediate group, patients predicted to be resistant, CBX5 single predictor): 61 days | median survival ([1]; intermediate group, patients predicted to be sensitive, CBX5 single predictor): 176 days | response rate ([1]; patients predicted to be resistant, CBX5 single predictor): 17% | response rate ([1]; patients predicted to be sensitive, CBX5 single predictor): 56% | GI50 (breast cancer cell lines [2]; AU565, read-out: log10(GI50), cell line AU565 (converted), Training sample): 0.0234 µM | GI50 (breast cancer cell lines [2]; BT-474, read-out: log10(GI50), cell line BT474 (converted), Training sample): 0.03 µM | GI50 (breast cancer cell lines [2]; BT-483, read-out: log10(GI50), cell line BT483 (converted), Training sample): 1.89 µM | GI50 (breast cancer cell lines [2]; BT-549, read-out: log10(GI50), cell line BT549 (converted), Training sample): 25.1 µM | GI50 (breast cancer cell lines [2]; CAMA-1, read-out: log10(GI50), cell line CAMA1 (converted), Test sample): 32.1 µM | GI50 (breast cancer cell lines [2]; HBL-100, read-out: log10(GI50), cell line HBL100 (converted), Training sample): 6.33 µM | GI50 (breast cancer cell lines [2]; HCC38, read-out: log10(GI50), cell line HCC38 (converted), Training sample): 5 µM | GI50 (breast cancer cell lines [2]; HCC70, read-out: log10(GI50), cell line HCC70 (converted), Test sample): 0.5 µM | GI50 (breast cancer cell lines [2]; HCC202, read-out: log10(GI50), cell line HCC202 (converted), Test sample): 0.015 µM | GI50 (breast cancer cell lines [2]; HCC1143, read-out: log10(GI50), cell line HCC1143 (converted), Training sample): 3.04 µM | GI50 (breast cancer cell lines [2]; HCC1187, read-out: log10(GI50), cell line HCC1187 (converted), Test sample): 7.35 µM | GI50 (breast cancer cell lines [2]; HCC1428, read-out: log10(GI50), cell line HCC1428 (converted), Test sample): 10 µM | GI50 (breast cancer cell lines [2]; HCC1500, read-out: log10(GI50), cell line HCC1500 (converted), Training sample): 1.6 µM | GI50 (breast cancer cell lines [2]; HCC1569, read-out: log10(GI50), cell line HCC1569 (converted), Training sample): 0.1 µM | GI50 (breast cancer cell lines [2]; HCC1937, read-out: log10(GI50), cell line HCC1937 (converted), Training sample): 3 µM | GI50 (breast cancer cell lines [2]; HCC1954, read-out: log10(GI50), cell line HCC1954 (converted), Training sample): 0.3 µM | GI50 (breast cancer cell lines [2]; Hs-578T, read-out: log10(GI50), cell line HS578T (converted), Training sample): 10 µM | GI50 (breast cancer cell lines [2]; MCF7, read-out: log10(GI50), cell line MCF7 (converted), Training sample): 6 µM | GI50 (breast cancer cell lines [2]; MCF-10A, read-out: log10(GI50), cell line MCF10A (converted), Training sample): 3 µM | GI50 (breast cancer cell lines [2]; MCF-12A, read-out: log10(GI50), cell line MCF12A (converted), Test sample): 4 µM | GI50 (breast cancer cell lines [2]; MDA-MB-157, read-out: log10(GI50), cell line MDAMB157 (converted), Training sample): 10 µM | GI50 (breast cancer cell lines [2]; MDA-MB-231, read-out: log10(GI50), cell line MDAMB231 (converted), Training sample): 10 µM | GI50 (breast cancer cell lines [2]; MDA-MB-361, read-out: log10(GI50), cell line MDAMB361 (converted), Training sample): 1.2 µM | GI50 (breast cancer cell lines [2]; MDA-MB-435, read-out: log10(GI50), cell line MDAMB435 (converted), Training sample): 10 µM | GI50 (breast cancer cell lines [2]; MDA-MB-436, read-out: log10(GI50), cell line MDAMB436 (converted), Training sample): 30 µM | GI50 (breast cancer cell lines [2]; MDA-MB-453, read-out: log10(GI50), cell line MDAMB453 (converted), Training sample): 3 µM | GI50 (breast cancer cell lines [2]; MDA-MB-468, read-out: log10(GI50), cell line MDAMB468 (converted), Training sample): 10 µM | GI50 (breast cancer cell lines [2]; SK-BR-3, read-out: log10(GI50), cell line SKBR3 (converted), Test sample): 0.03 µM | GI50 (breast cancer cell lines [2]; SUM52PE, read-out: log10(GI50), cell line SUM52PE (converted), Training sample): 15 µM | GI50 (breast cancer cell lines [2]; SUM149PT, read-out: log10(GI50), cell line SUM149PT (converted), Training sample): 0.3 µM | GI50 (breast cancer cell lines [2]; SUM185PE, read-out: log10(GI50), cell line SUM185PE (converted), Training sample): 12 µM | GI50 (breast cancer cell lines [2]; SUM-159-PT, read-out: log10(GI50), cell line SUM159PT (converted), Training sample): 3 µM | GI50 (breast cancer cell lines [2]; T47D, read-out: log10(GI50), cell line T47D (converted), Test sample): 25 µM | GI50 (breast cancer cell lines [2]; UACC-812, read-out: log10(GI50), cell line UACC812 (converted), Training sample): 0.015 µM | GI50 (breast cancer cell lines [2]; ZR-75-1, read-out: log10(GI50), cell line ZR75.1 (converted), Test sample): 20 µM | GI50 (breast cancer cell lines [2]; ZR-75B, read-out: log10(GI50), cell line ZR75B (converted), Test sample): 8 µM | GI50 (breast cancer cell lines [2]; read-out: average log(GI50), training set of 30 breast cancer cell-lines (converted)): 2.51 µM | GI50 (breast cancer cell lines [2]; read-out: log10(GI50), cell line 600MPE (converted), Training sample): 8 µM | GI50 (breast cancer cell lines [2]; read-out: log10(GI50), cell line HCC2185 (converted), Training sample): 8 µM | GI50 (breast cancer cell lines [2]; read-out: log10(GI50), cell line HCC3153 (converted), Training sample): 10 µM | GI50 (breast cancer cell lines [2]; read-out: log10(GI50), cell line LY2 (converted), Training sample): 8 µM | median survival of predicted responders compared to non-responders [3]: longer | dynamic range of the GI50 response data (breast cancer cell lines [4]; across 40 breast cancer cell lines): > 3 logs | Sensitivity (breast cancer cell lines [4]; cell line AU565 found sensitive to Lapatinib): Yes | Sensitivity (breast cancer cell lines [4]; cell line BT474 found sensitive to Lapatinib): Yes | Sensitivity (breast cancer cell lines [4]; cell line HCC202 found sensitive to Lapatinib): Yes | Sensitivity (breast cancer cell lines [4]; cell line HCC1569 found sensitive to Lapatinib): Yes | Sensitivity (breast cancer cell lines [4]; cell line HCC1954 found sensitive to Lapatinib): Yes | Sensitivity (breast cancer cell lines [4]; cell line SKBR3 found sensitive to Lapatinib): Yes | Sensitivity (breast cancer cell lines [4]; cell line SUM149PT found sensitive to Lapatinib): Yes | Sensitivity (breast cancer cell lines [4]; cell line UACC812 found sensitive to Lapatinib): Yes
